Assay results reported in patent publication US20050119197A1, “Naadp analogues for modulating t-cell activity” (priority 2000, published 2005).

Assays:
Type in all cases: cell-based, human
[1] = system: cADPR-mediated Ca^2+-signal; test: Co-injection of NAADP^+ with cADPR in Jurkat T-lymphocytes
Experimental: (§1) Jurkat T-lymphocytes were loaded with Fura2/AM and ratiometric Ca^2+ imaging and parallel microinjection in the presence of 1 mM extracellular Ca^2+ was carried out as detailed under ‘Experimental Procedures’. […] Shown are (n=number of experiments): A/F, coinjection of NAADP (50 nM) and 8-OCH3-cADPR (100 μM) (n=7); B/G, injection of NAADP^+ (50 nM, n=10); C/H, coinjection of NAADP^+ (10 μM) and cADPR (10 μM) (n=7); D/I, coinjection of NAADP^+ (50 nM) and cADPR (10 μM) (n=5); E/J, injection of cADPR (10 μM, n=5).
(§2) Batches of 10^7 Jurkat T cells were loaded with Fura2/AM as described (Guse et al., 1993). Fura2-loaded cells (10^7 cells/5 ml) were kept at room temperature until use. Glass coverslips were coated first with bovine serum albumin (5 mg/ml), and then with poly-L-lysine (0.1 mg/ml). Small chambers consisting of a rubber O-ring were sealed on the coverslips by silicon grease. Then 90 μl of extracellular buffer (140 mM NaCl, 5 mM KCl, 1 mM MgSO4, 1 mM CaCl2, 20 mM Hepes, 1 mM NaH2PO4, 5.5 mM glucose, pH 7.4) was added, followed by addition of 10 μl cell suspension. The coverslip was mounted on the stage of an inverted microscope (Axiovert 100, Zeiss, Oberkochingen, Germany). […] Ratio images (340/380) were constructed pixel by pixel, and changes in the ratio over time were measured by applying “regions-of-interest” on individual cells. […]

Jurkat T cells [2] = test: Ca^2+ signals in single intact Jurkat T-lymphocytes microinjected with compound (ratiometric Fura2 Ca^2+ imaging); conditions: 50 nM microinjected; nominal Ca^2+-free buffer; data not shown
[3] = system: Ins(1,4,5)P3-mediated Ca^2+-release; test: Co-injection of NAADP^+ with Ins(1,4,5)P3 in Jurkat T-lymphocytes
Experimental: (§3) Jurkat T-lymphocytes were loaded with Fura2/AM and ratiometric Ca^2+ imaging and parallel microinjection in the presence of 1 mM extracellular Ca^2+ was carried out as detailed under ‘Experimental Procedures’. […] Shown are: A/F, coinjection of NAADP^+ (50 nM) and […] (40 μM) (n=7); B/G, injection of NAADP^+ (50 nM) (n=10); C/H, coinjection of NAADP^+ (10 μM) and Ins(1,4,5)P3 (4 μM) (n=9); D/I, coinjection of NAADP^+ (50 nM) and Ins(1,4,5)P3 (4 μM) (n=3); E/J injection of Ins(1,4,5)P3 (4 μM; n=8)
as §2

Jurkat T cells [4] = test: Ca^2+ signals in single intact Jurkat T-lymphocytes microinjected with compound (ratiometric Fura2 Ca^2+ imaging); conditions: for Ca^2+ signal after microinjection: 1 mM extracellular Ca^2+
Experimental: Jurkat T-lymphocytes were loaded with Fura2/AM and Ca^2+ was measured as detailed under ‘Experimental Procedures’. Cells were injected as described in Experimental Procedures’ in the presence of 1 mM extacellular Ca^2+. Data are presented as overlays of single tracings of individual cells (left panel). […] As a control vehicle buffer without NAADP^+ was injected (A,B). The time point of microinjection is indicated by arrows.
Data from FIG. 1 are shown as mean values (n=5 to 17) from time point 80 sec (Ca^2+ peak; A) or 400 sec (Ca^2+ plateau; B).
Jurkat T-lymphocytes were loaded with Fura2/AM and ratiometric Ca^2+ imaging and parallel microinjection in the presence of 1 mM extracellular Ca^2+ was carried out as detailed under ‘Experimental Procedures’. Cells were injected with 50 nM NAADP^+ (A) or NADP^+ (B). Shown are the averages from 13 (A) and 5 (B) cells. The time point of microinjection is indicated by arrows.
Jurkat T lymphocytes (subclone JMP) were cultured in RPMI 1640 medium containing the following additions: Glutamax I, HEPES (20 mM, pH 7.4), NCS (7.5%), penicillin (100 U/ml) and streptomycin (50 μg/ml; all obtained from Life Technologies, Eggenstein, Germany). The cells were cultured at 37° C. in a humidified atmosphere in the presence of 5% CO2.
Batches of 10^7 Jurkat T cells were loaded with Fura2/AM as described (Guse et al., 1993). Fura2-loaded cells (10^7 cells/5 ml) were kept at room temperature until use. Glass coverslips were coated first with bovine serum albumin (5 mg/ml), and then with poly-L-lysine (0.1 mg/ml). Small chambers consisting of a rubber O-ring were sealed on the coverslips by silicon grease. Then 90 μl of extracellular buffer (140 mM NaCl, 5 mM KCl, 1 mM MgSO4, 1 mM CaCl2, 20 mM Hepes, 1 mM NaH2PO4, 5.5 mM glucose, pH 7.4) was added, followed by addition of 10 μl cell suspension. The coverslip was mounted on the stage of an inverted microscope (Axiovert 100, Zeiss, Oberkochingen, Germany). Ratiometric Ca^2+-imaging was performed using a PhotoMed/Photon Technology (Wedel, Germany) digital imaging system built around the Axiovert 100 microscope. Illumination at 340 and 380 nm was carried out using a chopper/optical filter system. Images were captured by an intensified CCD camera (type C2400-77; spatial resolution: 525×487 pixel; Hamamatsu, Garching, Germany) and stored as individual 340 and 380 images on harddisk. Sampling rate was usually 5 sec for a pair of images (340 and 380 nm) using 100-fold magnification. Data analysis was performed off-line using PhotoMed/Photon Technology (Wedel, Germany) “Image master” analysis software. Ratio images (340/380) were constructed pixel by pixel, and changes in the ratio over time were measured by applying “regions-of-interest” on individual cells. Finally, ratio values were converted to Ca^2+-concentrations by external calibration.
Parallel Ca^2+ imaging and microin ection experiments require a firm attachment of the Jurkat T cells without preactivation of intracellular Ca^2+-signaling. This was achieved by the above mentioned coating procedure of the glass coverslips, as detailed earlier (Guse et al., 1997). The cells were kept in a small chamber (100 μl volume) in extracellular buffer (140 mM NaCl, 5 mM KCl, 1 mM MgSO4, 1 mM CaCl2, 20 mM Hepes, 1 mM NaH2PO4, 5.5 mM glucose, pH 7.4). Compounds to be microinjected were cleared from particles by either filtration through 0.45 μm filters, by centrifugation in an Eppendorf centrifuge at maximal speed for 10 min, or by both. Femtotips II (Eppendorf-Netheler-Hintz, Hamburg, Germany) were filled with 5 μl of reagent solution and inserted into the semi-automatic Eppendorf microinjection system (Transjector 5246, Micromanipulator 5171, Eppendorf-Netheler-Hintz, Hamburg, Germany). Injection parameters were: injection pressure: 80 hPa, compensatory pressure: 40 hPa, duration of injection: 0.5 sec, velocity of pipette: 700 μm/sec, pipette angle: 45°. Injections were performed into the upper part of the cell.

[5] = system: OKT3-mediated Ca^2+-signaling (TCR/CD3 complex); test: Effect of microinjected NAADP^+ on OKT3-induced Ca^2+ signaling in single Jurkat T-lymphocytes
Experimental: Jurkat T-lymphocytes were loaded with Fura2/AM and ratiometric Ca^2+ imaging and parallel microinjection in the presence of 1 mM extracellular Ca^2+ was carried out as detailed under ‘Experimental Procedures’. The cells were injected with different concentrations of NAADP^+ and then OKT3(10 μg/ml) was added. Injection of intracellular buffer (A), NAADP^+ (50 nM [B] and 10 μM [C]), and addition of OKT3 is indicated by arrows. Data are presented as a typical tracing from one individual cell, for each condition at least 3 experiments were carried out.
as §2

[6] = system: NAADP^+-mediated Ca^2+-signaling; test: Co-injection of antagonists with NAADP^+: influence on NAADP^+-mediated Ca^2+-signaling in Jurkat T-lymphocytes
Experimental: as §1, §3
Batches of 10^7 Jurkat T cells were loaded with Fura2/AM as described (Guse et al., 1993). Fura2-loaded cells (10^7 cells/5 ml) were kept at room temperature until use. Glass coverslips were coated first with bovine serum albumin (5 mg/ml), and then with poly-L-lysine (0.1 mg/ml). Small chambers consisting of a rubber O-ring were sealed on the coverslips by silicon grease. Then 90 μl of extracellular buffer (140 mM NaCl, 5 mM KCl, 1 mM MgSO4, 1 mM CaCl2, 20 mM Hepes, 1 mM NaH2PO4, 5.5 mM glucose, pH 7.4) was added, followed by addition of 10 μl cell suspension. The coverslip was mounted on the stage of an inverted microscope (Axiovert 100, Zeiss, Oberkochingen, Germany). Ratiometric Ca^2+-imaging was performed using a PhotoMed/Photon Technology (Wedel, Germany) digital imaging system built around the Axiovert 100 microscope. Illumination at 340 and 380 nm was carried out using a chopper/optical filter system. […] Ratio images (340/380) were constructed pixel by pixel, and changes in the ratio over time were measured by applying “regions-of-interest” on individual cells. […]

[7] = Ins(1,4,6)PS3 40 μM co-injected with NAADP^+ 50 nM, vs NAADP^+ alone

`Nc1ncnc2c1ncn2[C@@H]1O[C@H](COP(=O)(O)OP(=O)(O)OCC2OC([n+]3cccc(C(=O)[O-])c3)C(O)C2O)[C@@H](O)[C@H]1OP(=O)(O)O` (stereo in doubt) [NAADP^+, nicotinic acid adenine dinucleotide phosphate] was tested, and the “effect on cADPR-mediated Ca^2+ signals” value ([1]; NAADP^+ 50 nM co-injected with cADPR 10 μM) was “did not significantly change”, the “effect on cADPR-mediated Ca^2+-signal” value ([1]; NAADP^+ 10 μM (self-desensitizing) co-injected with cADPR 10 μM) was “massive decrease” and the “high initial Ca^2+-spike in nominal Ca^2+-free extracellular buffer” value (Jurkat T cells [2]) was “massively reduced”. The “Ca^2+ signal on co-injection with Ins(1,4,5)P3” value ([3]; NAADP^+ 50 nM co-injected with Ins(1,4,5)P3 4 μM) was “high initial Ca^2+ peak”, the “effect on Ins(1,4,5)P3-mediated Ca^2+-release” value ([3]; NAADP^+ 10 μM (desensitizing) co-injected with Ins(1,4,5)P3 4 μM) was “almost complete inhibition” and the “longlasting Ca^2+-signal as measured at 400 s” value (Jurkat T cells [4]; 100 nM, Ca^2+ plateau, FIG. 2B) was “only minor changes”. For the same compound, the “optimal concentration for the initial Ca^2+-peak (bell shaped dose response curve)” value (Jurkat T cells [4]; Ca^2+ peak at 80 sec, FIG. 2A) was 100 nM, the “Ca^2+ signal after microinjection” value (Jurkat T cells [4]; pipette concentration 0.1 nM) was “without effect in most of the cells” and the “Ca^2+ signal after microinjection” value (Jurkat T cells [4]; pipette concentration 1 nM) was “without effect in most of the cells”. For the same compound, the “Ca^2+ signal after microinjection” value (Jurkat T cells [4]; pipette concentration 10 nM) was “stimulated repetitive, longlasting Ca^2+ spiking of low amplitude”, the “Ca^2+ signal after microinjection” value (Jurkat T cells [4]; pipette concentration 10 nM, listed as NAADP+) was “evokes repetitive and longlasting Ca^2+ oscillations of low amplitude” and the “Ca^2+ signal after microinjection” value (Jurkat T cells [4]; pipette concentration 50 nM) was “an initial, rapidly occurring Ca^2+-peak with a high amplitude”. The “Ca^2+ signal after microinjection” value (Jurkat T cells [4]; pipette concentration 50 nM, listed as NAADP+) was “a rapid and high initial Ca^2+ peak followed by trains of smaller Ca^2+ oscillations”, the “Ca^2+ signal after microinjection” value (Jurkat T cells [4]; pipette concentration 100 nM) was “a rapid and high initial Ca^2+ peak followed by trains of smaller Ca^2+ oscillations” and the “Ca^2+ signal after microinjection” value (Jurkat T cells [4]; pipette concentration 1 μM) was “gradually reduce the initial Ca^2+ peak”. For the same compound, the “Ca^2+ signal after microinjection” value (Jurkat T cells [4]; pipette concentration 10 μM) was “gradually reduce the initial Ca^2+ peak”, the “Ca^2+ signal after microinjection” value (Jurkat T cells [4]; pipette concentration 100 μM) was “no signal was detectable” and the “Ca^2+ signal after microinjection” value (Jurkat T cells [4]; pipette concentration 100 μM, listed as NAADP+) was “complete self-inactivation of Ca^2+-signals”. For the same compound, the “effect on OKT3-mediated Ca^2+-signal” value ([5]; NAADP^+ 50 nM microinjected prior to OKT3 10 μg/ml) was “did not significantly change” and the “effect on OKT3-mediated Ca^2+-signaling” value ([5]; NAADP^+ 10 μM (desensitizing) microinjected before OKT3 10 μg/ml) was “dramatic inhibition”.

`COc1nc2c(=N)n3cnc2n1C1OC(COP(=O)(O)OP(=O)(O)OCC2OC3C(O)C2O)C(O)C1O` (stereo not drawn) [8-OCH3-cADPR] was tested, and the “effect on NAADP^+-mediated Ca^2+-signaling” value ([6]; 8-OCH3-cADPR 100 μM co-injected with NAADP^+ 50 nM) was “did not significantly affect”.

With `OC1C(O)C(OP(O)(O)=S)C(OP(O)(O)=S)C(O)C1OP(O)(O)=S` (stereo not drawn) [Ins(1,4,6)PS3] the “decay of the initial Ca^2+ peak of NAADP^+-mediated signal” value [6, 7] was “faster decay” and the “effect on initial Ca^2+ peak of NAADP^+-mediated signal” value [6, 7] was “partial reduction”.

In the case of “nicotinamide-adenine dinucleotide phosphate [NADP^+]”, the “Ca^2+ signal after microinjection” value (Jurkat T cells [4]; pipette concentration 50 nM) is reported as “completely without effect”.
